Source: ChEMBL document CHEMBL4219059, “Synthesis and biological evaluation of cyclopeptide GG-8-6 and its analogues as anti-hepatocellular carcinoma agents” (Bioorg Med Chem, 2018)
pIC50: −log10 of the molar value. The source made the active and inactive calls. The calls are words filed in the database; no cut-off is given here. Peptide text beside a SMILES is read from it.

Columns and labels:
[1] = tested on: HepG2; assay: Antiproliferative activity against human HepG2 cells after 24 hrs by MTT assay; type: functional, cell-based; settings: HepG2, 24 h
[2] = tested on: SMMC-7721; assay: Antiproliferative activity against human SMMC7721 cells after 24 hrs by MTT assay; type: functional, cell-based; settings: SMMC-7721, 24 h
[3] = tested on: SMMC-7721; assay: Induction of apoptosis in human SMMC7721 cells assessed as late apoptotic cells at 0.2 uM after 24 hrs by Annexin V-FITC/propidium iodide staining based flow cytometry (reference value: 0.7%); type: functional
[4] = tested on: SMMC-7721; assay: Induction of apoptosis in human SMMC7721 cells assessed as chromatin condensation at 0.2 uM after 24 hrs by DAPI staining based laser confocal microscopy; type: functional, cell-based
[5] = tested on: SMMC-7721; assay: Induction of apoptosis in human SMMC7721 cells assessed as early apoptotic cells at 0.2 uM after 24 hrs by Annexin V-FITC/propidium iodide staining based flow cytometry (reference value: 2%); type: functional

SMILES	pIC50 [1]	pIC50 [2]	Activity [3]	Activity [4]	Activity [5]
CC(=O)O[C@H]1C(=O)[C@@]2(C)[C@H]([C@H](OC(=O)c3ccccc3)[C@]3(O)C[C@H](OC(=O)[C@H](O)[C@@H](NC(=O)c4ccccc4)c4ccccc4)C(C)=C1C3(C)C)[C@]1(OC(C)=O)CO[C@@H]1C[C@@H]2O [PACLITAXEL]	–	–	3.4%	Active	54.7 - 56.7%
CC[C@H](C)[C@@H]1NC(=O)[C@@H]2CCCN2C(=O)[C@H](CC(C)C)NC(=O)[C@H](C(C)C)NC(=O)[C@H](CC(C)C)NC(=O)[C@H](C)NC(=O)[C@H](CC(C)C)NC(=O)[C@H](CC(C)C)NC(=O)[C@H](CC(C)C)NC1=O (cyclo(ALVLPILLL))	4.39	4.32	–	–	–
CC[C@H](C)[C@@H]1NC(=O)[C@@H]2CCCN2C(=O)[C@H](CC(C)C)NC(=O)[C@H](C(C)C)NC(=O)[C@H](C)NC(=O)[C@H](C(C)C)NC(=O)[C@H](CC(C)C)NC(=O)[C@H](CC(C)C)NC(=O)[C@H](CC(C)C)NC1=O (cyclo(AVLPILLLV))	4.41	4.41	–	–	–
CC[C@H](C)[C@@H]1NC(=O)[C@@H]2CCCN2C(=O)[C@H](CC(C)C)NC(=O)[C@H](C(C)C)NC(=O)[C@H](CC(C)C)NC(=O)[C@H](C(C)C)NC(=O)[C@H](CC(C)C)NC(=O)[C@H](CC(C)C)NC(=O)[C@H](C)NC1=O (cyclo(ALLVLVLPI))	< 4.00	4.53	–	–	–
CC[C@H](C)[C@@H]1NC(=O)[C@@H]2CCCN2C(=O)[C@H](CC(C)C)NC(=O)[C@H](C)NC(=O)[C@H](CC(C)C)NC(=O)[C@H](C(C)C)NC(=O)[C@H](CC(C)C)NC(=O)[C@H](CC(C)C)NC(=O)[C@H](CC(C)C)NC1=O (cyclo(ALPILLLVL))	4.52	4.52	–	–	–

Further compounds by rising pIC50 [1], results first:

pIC50 [1]	pIC50 [2]	SMILES	Activity [3]	Activity [4]	Activity [5]
4.29	4.13	CC[C@H](C)[C@@H]1NC(=O)[C@@H]2CCCN2C(=O)[C@H](CC(C)C)NC(=O)[C@H](C(C)C)NC(=O)[C@H](CC(C)C)NC(=O)[C@H](C(C)C)NC(=O)[C@H](CC(C)C)NC(=O)[C@H](CC(C)C)NC1=O (cyclo(ILLVLVLP))	–	–	–
4.50	4.25	CC[C@H](C)[C@@H]1NC(=O)[C@@H]2CCCN2C(=O)[C@H](CC(C)C)NC(=O)[C@H](C(C)C)NC(=O)[C@H](CC(C)C)NC(=O)[C@H](C(C)C)NC(=O)[C@H](C)NC(=O)[C@H](CC(C)C)NC(=O)[C@H](CC(C)C)NC1=O (cyclo(AVLVLPILL))	–	–	–
